ChEMBL document CHEMBL4818987, “Recent advances of podophyllotoxin/epipodophyllotoxin hybrids in anticancer activity, mode of action, and structure-activity relationship: An update (2010-2020)” (Eur J Med Chem, 2020)

Assays:
K562/Adr [1] = assay: Potency index, ratio of etoposide IC50 to test compound IC50 for antiproliferative activity against human K562/ADM cells; assay type: functional
K562 [2] = assay: Antiproliferative activity against human K562 cells incubated for 72 hrs by CCK8 assay; assay type: functional, cell-based; details: K562, 72 h
K562 [3] = assay: Potency index, ratio of etoposide IC50 to test compound IC50 for antiproliferative activity against human K562 cells; assay type: functional
K562/Adr [4] = assay: Antiproliferative activity against human K562/ADR cells incubated for 72 hrs by CCK8 assay; assay type: functional, cell-based
K562/VCR = assay: Cytotoxicity against human K562/VCR cells incubated for 72 hrs by CCK8 assay; assay type: functional, cell-based
K562 [5] = assay: Cytotoxicity against human K562 cells incubated for 72 hrs by CCK8 assay; assay type: functional, cell-based; details: K562, 72 h
K562 [6] = assay: Potency index, ratio of doxorubicin IC50 to compound IC50 for human K562 cells; assay type: functional
[7] = Resistance index, ratio of IC50 for human K562/ADR cells to IC50 for human K562 cells; assay type: functional
K562/Adr [8] = assay: Cytotoxicity against human K562/ADR cells incubated for 72 hrs by CCK8 assay; assay type: functional, cell-based
K562/Adr [9] = assay: Potency index, ratio of doxorubicin IC50 to compound IC50 for human K562/ADR cells; assay type: functional
HeLa [10] = assay: Antiproliferative activity against human HeLa cells incubated for 72 hrs by MTT assay; assay type: functional, cell-based
HepG2 [11] = assay: Antiproliferative activity against human HepG2 cells incubated for 72 hrs by MTT assay; assay type: functional, cell-based; details: HepG2, 72 h
CT26 = assay: Antiproliferative activity against […] cells incubated for 72 hrs by MTT assay; assay type: functional, cell-based; details: Mus musculus, CT26, 72 h
SK-OV-3 = assay: Antiproliferative activity against human SK-OV-3 cells incubated for 72 hrs by MTT assay; assay type: functional, cell-based; details: SK-OV-3, 72 h
B16-F10 = assay: Antiproliferative activity against mouse B16/F10 cells incubated for 72 hrs by MTT assay; assay type: functional, cell-based; details: B16-F10, 72 h
MCF7 [12] = assay: Antiproliferative activity against human MCF7 cells incubated for 72 hrs by MTT assay; assay type: functional, cell-based; details: MCF7, 72 h
A549 [13] = assay: Antiproliferative activity against human A549 cells incubated for 72 hrs by MTT assay; assay type: functional, cell-based; details: A549, 72 h
HepG2 [14] = assay: Antiproliferative activity against human HepG2 cells incubated for 48 hrs by MTT assay; assay type: functional, cell-based; details: HepG2, 48 h
L02 [15] = assay: Cytotoxicity against human HL7702 cells incubated for 48 hrs by MTT assay; assay type: cell-based; details: L02, 48 h
BGC-823 [16] = assay: Antiproliferative activity against human BGC-823 cells incubated for 48 hrs by MTT assay; assay type: functional, cell-based; details: BGC-823, 48 h
A549 [17] = assay: Antiproliferative activity against human A549 cells incubated for 48 hrs by MTT assay; assay type: functional, cell-based; details: A549, 48 h
MCF7 [18] = assay: Cytotoxicity against human MCF7 cells by MTT assay; assay type: functional, cell-based
HeLa [19] = assay: Antiproliferative activity against human HeLa cells incubated for 24 hrs by MTT assay; assay type: functional, cell-based
HepG2 [20] = assay: Antiproliferative activity against human HepG2 cells incubated for 24 hrs by MTT assay; assay type: functional, cell-based; details: HepG2, 24 h
L02 [21] = assay: Cytotoxicity against human L02 cells; assay type: cell-based
MCF7 [22] = assay: Antiproliferative activity against human MCF7 cells incubated for 24 hrs by MTT assay; assay type: functional, cell-based; details: MCF7, 24 h
A549 [23] = assay: Antiproliferative activity against human A549 cells incubated for 24 hrs by MTT assay; assay type: functional, cell-based; details: A549, 24 h
HeLa [24] = assay: Antiproliferative activity against human HeLa cells by MTT assay; assay type: functional, cell-based
MKN-45 = assay: Antiproliferative activity against human MKN-45 cells incubated for 72 hrs by MTT assay; assay type: functional, cell-based; details: Homo sapiens, MKN-45, 72 h
BGC-823 [25] = assay: Antiproliferative activity against human BGC-823 cells incubated for 72 hrs by MTT assay; assay type: functional, cell-based; details: BGC-823, 72 h
A549 [26] = assay: Antiproliferative activity against human A549 cells incubated for 3 days by MTT assay; assay type: functional, cell-based; details: A549, 72 h
HepG2 [27] = assay: Antiproliferative activity against human HepG2 cells incubated for 3 days by MTT assay; assay type: functional, cell-based; details: HepG2, 72 h
HCT-116 = assay: Antiproliferative activity against human HCT116 cells incubated for 3 days by MTT assay; assay type: functional, cell-based; details: HCT-116, 72 h
Vero = assay: Cytotoxicity against African green monkey Vero cells; assay type: cell-based; details: Chlorocebus sabaeus
Calu-1 = assay: Antiproliferative activity against human Calu-1 cells incubated for 24 hrs by MTT assay; assay type: functional, cell-based; details: Calu-1, 24 h
K562/A02 = assay: Cytotoxicity against human K562/A02 cells by SRB assay; assay type: functional, cell-based

COc1cc([C@@H]2c3cc4c(cc3[C@H](OCC(=O)N3C(=O)C(=O)c5c(Br)cccc53)[C@H]3COC(=O)[C@H]23)OCO4)cc(OC)c1OC
Ratio IC50 (K562/Adr [1]): 8.8 | IC50 (K562 [2]): 19 nM | Ratio IC50 (K562 [3]): 8.8 | IC50 (K562/Adr [4]): 19 nM

COc1cc([C@@H]2c3cc4c(cc3[C@H](OC(=O)c3ccc5[nH]ccc5c3)[C@H]3COC(=O)[C@H]23)OCO4)cc(OC)c1OC
IC50 (K562/VCR): 81 nM | IC50 (K562 [5]): 81 nM

COc1ccc(/C=C/C(=O)O[C@@H]2c3cc4c(cc3[C@@H](c3cc(OC)c(OC)c(OC)c3)[C@H]3C(=O)OC[C@@H]32)OCO4)cc1OC
Ratio IC50 (K562 [6]): 2.2 | IC50 (K562 [5]): 11 nM | Ratio IC50 [7]: 1.1 | IC50 (K562/Adr [8]): 11 nM | Ratio IC50 (K562/Adr [9]): 2.2

COc1ccc(-c2coc3cc(OCCCCC(=O)O[C@@H]4c5cc6c(cc5[C@@H](c5cc(OC)c(OC)c(OC)c5)[C@H]5C(=O)OC[C@@H]54)OCO6)ccc3c2=O)cc1
IC50 (HeLa [10]): 213 nM | IC50 (HepG2 [11]): 213 nM | IC50 (CT26): 213 nM | IC50 (SK-OV-3): 213 nM | IC50 (B16-F10): 213 nM | IC50 (MCF7 [12]): 213 nM | IC50 (A549 [13]): 213 nM

COc1cc([C@@H]2c3cc4c(cc3[C@@H](Sc3nc(N)nc5nc[nH]c35)[C@H]3COC(=O)[C@H]23)OCO4)cc(OC)c1OC
IC50 (HepG2 [14]): 300 nM | IC50 (L02 [15]): 300 nM | IC50 (BGC-823 [16]): 300 nM | IC50 (A549 [17]): 300 nM

COc1cc([C@@H]2c3cc4c(cc3[C@@H](OC(=O)/C=C/c3ccc([N+](=O)[O-])cc3)[C@H]3COC(=O)[C@H]23)OCO4)cc(OC)c1OC
Ratio IC50 (K562 [6]): 2.2 | IC50 (K562 [5]): 11 nM | Ratio IC50 [7]: 1.1 | IC50 (K562/Adr [8]): 11 nM | Ratio IC50 (K562/Adr [9]): 2.2

COc1cc([C@@H]2c3cc4c(cc3[C@@H](OCc3cn([C@@H]5O[C@H](COC(C)=O)[C@H](OC(C)=O)[C@H](OC(C)=O)[C@H]5OC(C)=O)nn3)[C@H]3COC(=O)[C@H]23)OCO4)cc(OC)c1OC
IC50 (MCF7 [18]): 1250 nM

COc1cc([C@@H]2c3cc4c(cc3[C@H](OC(=O)CSc3nnc(-c5ccc(Br)cc5)o3)[C@H]3COC(=O)[C@H]23)OCO4)cc(OC)c1OC
IC50 (HeLa [19]): 2540 nM | IC50 (HepG2 [20]): 2540 nM | IC50 (L02 [21]): 79600 nM | IC50 (MCF7 [22]): 2540 nM | IC50 (A549 [23]): 2540 nM

COc1ccc(-c2coc3cc(OCC(=O)O[C@@H]4c5cc6c(cc5[C@@H](c5cc(OC)c(OC)c(OC)c5)[C@H]5C(=O)OC[C@@H]54)OCO6)ccc3c2=O)cc1
IC50 (HeLa [10]): 213 nM | IC50 (HepG2 [11]): 213 nM | IC50 (CT26): 213 nM | IC50 (SK-OV-3): 213 nM | IC50 (B16-F10): 213 nM | IC50 (MCF7 [12]): 213 nM | IC50 (A549 [13]): 213 nM

COc1cc([C@@H]2c3cc4c(cc3[C@@H](OC(=O)/C=C/c3ccco3)[C@H]3COC(=O)[C@H]23)OCO4)cc(OC)c1OC
Ratio IC50 (K562 [6]): 2.2 | IC50 (K562 [5]): 11 nM | Ratio IC50 [7]: 1.1 | IC50 (K562/Adr [8]): 11 nM | Ratio IC50 (K562/Adr [9]): 2.2

COc1ccc2c(c1)cc(/C=N/[C@@H]1c3cc4c(cc3[C@@H](c3cc(OC)c(OC)c(OC)c3)[C@H]3C(=O)OC[C@@H]31)OCO4)n2Cc1ccccc1F
IC50 (HeLa [24]): 650 nM

CC1=C(/C=C/C(C)=C/C=C/C(C)=C/C(O)O)C(C)(C)CCC1
IC50 (MKN-45): 88500 nM | IC50 (BGC-823 [25]): 83100 nM

COc1cc([C@@H]2c3cc4c(cc3[C@@H](N)[C@H]3COC(=O)[C@H]23)OCO4)cc(OC)c1OC [4BETA-NH2-PODOPHYLLOTOXIN]
IC50 (A549 [26]): 100 nM | IC50 (HepG2 [27]): 100 nM | IC50 (HCT-116): 100 nM

COc1ccc(/C=C\c2cc(OC)c(OC)c(OC)c2)cc1O [COMBRETASTATIN A4]
IC50 (HeLa [19]): 2780 nM | IC50 (Vero): 2560 nM | IC50 (HepG2 [20]): 3450 nM | IC50 (L02 [21]): 4230 nM | IC50 (Calu-1): 2780 nM | IC50 (MCF7 [22]): 3450 nM | IC50 (A549 [23]): 2780 nM

COc1cccc2c1C(=O)c1c(O)c3c(c(O)c1C2=O)C[C@@](O)(C(=O)CO)C[C@@H]3O[C@H]1C[C@H](N)[C@H](O)[C@H](C)O1 [DOXORUBICIN]
GI50 (K562/A02): 14300 nM | IC50 (K562/Adr [8]): 220 nM
